Experimental data: patent publication US6734188B1, “Composition for treatment of constipation and irritable bowel syndrome” (priority 1999, dated 2004)

Key:
[1] = tested on: healthy, non-smoking volunteers; test: Gut transit time study with radio opaque markers, oral naloxone with or without oral codeine (Example 1); assay type: in vivo, human; details: for Gut transit time, Maximum / Gut transit time, Mean / Gut transit time, Median / Gut transit time, Minimum: codeine 30 mg bd
Experimental: The study consisted of four 10-day study periods, with at least two weeks between each, which were in a randomised order and the capsules being administered daily in a double blind manner. […] The capsules were administered twice a day (“bd”).
The study protocol was as follows: On day 0, subjects were given capsule B and on days 1 to 9, were given capsules A and B. On days 3 to 6, the subjects took transit markers; packaged in distinctly coloured capsules, each containing 20 different shaped radio opaque marker pellets (Dunn Clinical Nutrition). From day 7, the subjects' next two bowel motions were collected. A normal diet was adhered to throughout the study period and recorded on days 3 to 6.

[2] = tested on: male volunteers; test: Gut transit time study, fixed doses of naloxone with or without codeine (Example 2); assay type: in vivo, human; details: naloxone 5, 10 and 20 mg bd, Gelucire 53/10:42/12 95:5, Eudragit LS coated; with 30 mg bd codeine in second week
Experimental: In a further study, the procedure of Example 1 was substantially followed using Gelucire™ 53/10 & Gelucire™ 42/12 95:5 as the polyglycolised glyceride matrix.
The gut transit time was measured at the end of the first week. During the second week, each volunteer was also given 30 mg bd codeine and gut transit times measured again at the end of the second week.

[3] = after parenteral administration; cited from earlier work
[4] = tested on: patients with advanced cancer; details: patients with advanced cancer treated with an opioid analgesic; cited from earlier work
[5] = tested on: patient with Irritable Bowel Syndrome; details: administered intermittently, similar dosage form to Example 3
[6] = in vivo; cited from earlier work
[7] = 8 patients whose transit time was increased by codeine (n = 8), naloxone 10 mg bd
[8] = all patients (n = 12), oral capsules twice a day, naloxone 10 mg bd
[9] = all patients (n = 12), oral capsules twice a day, naloxone 10 mg bd (Gelucire 50/13:42/12 82.5:17.5, enteric coated)

Compound	Gut transit time, Maximum [1, 7] [h]	Gut transit time, Mean [1, 7] [h]	Gut transit time, Median [1, 7] [h]	Gut transit time, Minimum [1, 7] [h]	Gut transit time, Maximum [1, 8] [h]	Gut transit time, Mean [1, 8] [h]	Gut transit time, Median [1, 8] [h]	Gut transit time, Minimum [1, 9] [h]	Effect on gut transit time (in words) [2]	Plasma half-life [3]	Effect on gut transit time (in words) ([1]; Example 1, naloxone 10 mg bd alone or with codeine 30 mg bd)	Laxative effect [4]	Clinical outcome in irritable bowel syndrome [5]	Crossing of the blood-brain barrier [6]
COc1ccc2c3c1O[C@H]1[C@@H](O)C=C[C@H]4[C@@H](C2)N(C)CC[C@@]341 [Codeine, codeine phosphate]	84.00	66.17	67.85	50.42	84.00	57.27	56.76	25.22	–	–	–	–	–	–
C=CCN1CC[C@]23c4c5ccc(O)c4O[C@H]2C(=O)CC[C@@]3(O)[C@H]1C5 [Naloxone, 17-allyl-6-deoxy-7,8-dihydro-14-hydroxy-6-oxonormorphine]	63.91	41.41	37.95	27.40	63.91	42.13	38.85	27.40	accelerate gut transit time	about 1 h	reduced gut transit time	produce a laxative effect	substantial clinical benefit	–
C[N@+]1(CC2CC2)CC[C@]23c4c5ccc(O)c4O[C@H]2C(=O)CC[C@@]3(O)[C@H]1C5 [methylnaltrexone]	–	–	–	–	–	–	–	–	–	–	–	–	–	do not cross the blood-brain barrier to a significant extent
